Source: patent US11291659B2, “P38 kinase inhibitors reduce DUX4 and downstream gene expression for the treatment of FSHD” (Fulcrum Therapeutics, Inc., priority 2017, dated 2022)

Test system: DUX4-fl mRNA
Experiment: DUX4-fl mRNA by nested qPCR in FSHD myotubes
Type: cell-based, Human
Conditions: 10, 100, and 1000 nM vs DMSO
Protocol: In a 6 well plate, 450 μL Buffer RLT Plus was added. Lysate was homogenized by transfer the lysate to a gDNA Eliminator spin column placed in a 2 mL collection tube (supplied), centrifuged for 30 s at ≥8000×g (≥10,000 rpm) and discarded column while saving the flow-through. Then 250 μL of Ethanol (35% final) was added to the flow-through, and mixed well by pipetting, not centrifuged. Then samples were transferred, including any precipitate that may have formed, to an RNeasy MinElute spin column placed in a 2 mL collection tube (supplied). Then centrifuged for 15 s at […]. Flow-through was discarded or collected for Protein precipitation. 700 μL Buffer RW1 to the RNeasy MinElute spin column was added then centrifuge for 15 s at ≥8000×g. and discard the flow-through. DNAse treatment was performed by gently mixing 10 μL DNAseI with 70 μL of Buffer RDD and added directly to the column, incubated at room temperature for 20 min. Then, 700 μL Buffer RW1 (per manufactures specification) to the RNeasy MinElute spin column, centrifuged for 15 s at ≥8000×g. and the flow-through discarded. 500 μL Buffer RPE was added to the RNeasy MinElute spin column centrifuged for 15 s at ≥8000×g and discarded the flow-through. […]
cDNA preparation. […] 10 seconds then read plate on QuantStudio7 as per manufactures instruction (Thermo). […]

SMILES: Cn1c(=O)c(Oc2ccc(F)cc2F)cc2cnc(NC(CCO)CCO)nc21 [Pamapimod, 6-(2,4-difluorophenoxy)-2-((1,5-dihydroxypentan-3-yl)amino)-8-methylpyrido[2,3-d]pyrimidin-7(8H)-one]
- DUX4-fl mRNA levels normalized to POLR2A mRNA: dose-dependently reduced
